Consider two compounds from patent US6346529B1, “Antiviral therapy using thiazine dyes” (Oklahoma Medical Research Foundation, priority 1988, dated 2002).

A short description of series [1]: CEM cell proliferation (cytotoxicity) assay. It is filed as cell-based. The settings on record: human. The method, then:
PBM and CEM Cells Proliferation Assay: The drugs were evaluated for their potential toxic effects on uninfected PHA-stimulated human PBM cells and also in CEM cells. The cells were cultured with and without drug for 6 days at which time aliquots were counted for cell viability as described above. Median-Effect Method: EC50 and IC50 values were obtained by analysis of the data using the median-effect equation (Chou, T., et al., “Quantitative Analysis of Dose-Effect Relationships: The Combined Effects of Multiple Drugs or Enzyme Inhibitors,” Adv. Enz. Regul. 22, 27-55 (1984).

Series [2] deals with nucleosides of adenine, cytosine, thymine, and guanine. As to the kind of experiment: Methylene blue plus light treatment of nucleosides (HPLC). The series is classed as biochemical. The settings on record: methylene blue plus light 15 min. How it is done: The nucleosides of adenine, cytosine, thymine, and guanine (approximately 200 nmoles each) were also subjected to methylene blue (20 μl into 2.0 mls final total volume) plus light treatment (100 watt incandescent light 11 cm over solution for 15 min).

Another series has as its system RNA virus R17. As to the kind of experiment: Inactivation of RNA virus R17, plaque titer on E. coli lawn. The series is classed as cell-based, R17 phage.
For series [3] the following is noted: Ziv and Heavner 1984; cited from earlier work.
For series [4] the following is noted: sheep, cited from earlier work.

One may read the IC50 as the concentration that inhibits the measured activity by half. Read a low IC50 as greater potency.

In the case of `Nc1nc2c(ncn2COCCO)c(=O)[nH]1` [ACV, Acyclovir], in series [1], the IC50 at 6 days is > 100 µM.
`CN(C)c1ccc2nc3ccc(N(C)C)cc3[s+]c2c1.[Cl-]` [MB, 3,7-Bis(dimethylamino)phenothiazin-5-ium chloride]: in series [2], the “formation of hydroxylated derivative from nucleosides” value is on record as “Only deoxyguanosine reacted to form the hydroxylated derivative”. Further, the “inactivation of R17 (ability to form plaques)” value in the series on RNA virus R17 (0.02 μM methylene blue plus light for 15 min) is “causes inactivation of R17”. In addition, the PFU in the series with RNA virus R17 (MB 0.05 uM, light 1.0 min) is 1.0 × 10^9/ml PFU/ml. Further, the “crossing of the blood-milk barrier” value in series [3] is listed as “crosses the blood-milk barrier easily”. In series [4] (doses as high as 50 mg/kg), the methemoglobin production entry is reported as “minimal methemoglobin production”. The hematologic changes entry in series [4] (up to four weeks after a total dose of 30 mg/kg) is recorded as “no hematologic changes”. Also, the “overall elimination rate constant” value in series [4] was 0.0076 ± 0.016 min⁻¹.
